# Test results taken from US20160184274A1, “Methods for inhibiting mesenchymal phenotype after epithelial-to-mesenchymal transition” (Fibrostatin, S.L., priority 2014, published 2016).
# “Also recorded” adds a separate entry of the source.
# How the values were obtained:
# [1] = system: mesenchymal A549 spheroids; assay: Collagen network in mesenchymal spheroids, confocal microscopy; assay type: cell-based, Human
# Protocol: FIG. 7. T12 disrupts collagen IV network and reduces A549 mesenchymal spheroids viability. A549 spheroids were subjected to EMT induction with TGF-β and TNF-α during 4 days, and treated with T12 (10 μM) or maintained untreated (Cont) for the last 2 days. In A, spheroids were analyzed by immunofluorescence confocal microscopy with anti-α1α2 (IV) antibodies (COL4, white) and DAPI to visualize the cell nuclei (grey). In B, the culture media of the spheroids in A were used for assessing cell death by measuring LDH activity. […] Represented are Means (±SEM).
# (§1) Three-dimensional spheroid cultures of A549 cells were obtained using a hanging droplet method (Kelm et al., 2003. Biotechnol. Bioeng. 83: 173-180.; Kumar et al., 2013. PLoS One. 8: e68597). Briefly, cells were grown to approximately 80% confluence on adherent tissue-culture flasks. Then cells were trypsinized, dispersed in DMEM/10% FBS, and counted using an automated cell counter (MOXI® Z, Orflo). The cell suspension was diluted to a 10^6 cells/mL-concentration, and 25 μl of the cell suspension were pipetted onto the underside of a sterile 10-cm tissue culture plate lid. Each lid was loaded with approximately 55 droplets. After loading, the lid was placed onto a tissue culture plate containing 6 mL of sterile PBS (phosphate-buffered saline) and incubated for 48 hours to facilitate spheroid formation. […]
# A7C11 = assay: Collagen IV expression in A7C11; assay type: cell-based, murine; conditions: data not shown
# RAW264.7 = assay: Collagen IV expression in RAW264.7; assay type: cell-based; conditions: data not shown
# [2] = system: mesenchymal A549 spheroids; assay: Intracellular doxorubicin accumulation and viability in spheroids; assay type: cell-based, Human; conditions: FIG. 9
# Protocol: as §1, with “FIG. 9. T12 enhances intracellular accumulation of doxorubicin in A549 mesenchymal spheroids. A549 spheroids were subjected to EMT induction with TGF-β and TNF-α during 4 days, and treated with T12 (10 μM) or maintained untreated (Placebo) for the last 2 days. Three hours before spheroid analysis doxorubicin (1 μM) was added. Spheroids were fixed and analyzed by immunofluorescence confocal microscopy with anti-α1α2(IV) antibodies for collagen IV network visualization (grey). Doxorubicin was detected by its own auto-fluorescence. […] Three-dimensional” for “Three-dimensional”
# [3] = system: A549 tumors displaying mesenchymal phenotype; assay: A549 xenograft, tumors with mesenchymal phenotype; assay type: in vivo; conditions: T12 20 mg/kg/day in drinking water; athymic mice; FIG. 10A
# Description: FIG. 10. […] Control, n=43; T12, n=18.
# stem A549 cells = conditions: WO/2014/006020; cited from earlier work
smiles,measurement,setting,value
"COc1ccc(-c2ccc(-c3cccc(C)c3)c(C)c2)c(CCC(=O)O)c1 [T12, 3-[4″-methoxy-3,2′-dimethyl-(1,1′;4′,1″)terphenyl-2″-yl] propionic acid]",collagen IV network formation,"[1]; T12 10 μM for the last 2 days of 4-day EMT induction with TGF-β and TNF-α, FIG. 7A",inhibited collagen IV network formation
same,fibrillary collagen I,[1]; data not shown,sharply reduced fibrillary collagen I
same,collagen IV expression,A7C11,significantly reduced collagen IV expression
same,collagen IV expression,RAW264.7,significantly reduced collagen IV expression
same,intracellular accumulation of doxorubicin (nuclei containing doxorubicin),"[2]; T12 10 μM last 2 days, doxorubicin 1 μM 3 h before analysis",accumulating doxorubicin inside the cells; also recorded: more abundant in spheroids treated with doxorubicin and T12 than in spheroids treated only with doxorubicin
same,viability of spheroids with doxorubicin,[2]; T12 10 μM plus doxorubicin 1 μM,sharply reduced the viability
same,tumor growth (relative tumor volume),[3],very effective slowing the growth
same,doxorubicin accumulation and viability,stem A549 cells,accumulated doxorubicin reducing viability
